Experimental findings from US20220313651A1, “INHIBITORS OF ZIKA VIRUS INFECTION” (priority 2019, published 2022) are described below.

Series [1] has as its system ZIKV human strain R116265 (2016/Mexico). Briefly: Plaque reduction inhibition assay in Vero E6 cells, ZIKV R116265. Format: cell-based, Zika virus (ZIKV). The note with it: Table 7, gossypol derivatives, read-out: ZIKV strains IC50, R116265. An excerpt: (§1) Vero E6 and LLC-MK2 cells were maintained in Dulbecco's Modified Eagle Medium (DMEM) supplemented with 8% fetal bovine serum (FBS) and penicillin and streptomycin (P/S). C6/36 cells were maintained in Eagle's Minimal Essential Medium (EMEM) supplemented with 5% FBS and P/S. ZIKV strains, including human strains PAN2016 (2016/Panama), R116265 (2016/Mexico), PAN2015 (2015/Panama), FLR (2015/Colombia), R103451 (2015/Honduras), PRVABC59 (2015/Puerto Rico), PLCal_ZV (2013/Thailand), and IbH 30656 (1968/Nigeria), mosquito strain MEX 2-81 (2016/Mexico), and rhesus macaque strain MR 766 (1947/Uganda), were used in the studies. These ZIKV strains were cultured in Vero E6 cells, and viral titers were detected by a standard plaque-forming assay. DENV human strains, including type 1: DENV-1-V1792 (2007/Vietnam), type 2: DENV-2-V594 (2006/Puerto Rico), type 3: DENV-3-V1043 (2006/Puerto Rico), and type 4: DENV-4-PR 06-65-740 (2006/Puerto Rico), were cultured in C6/36 cells, and the viral titers were determined by plaque-forming assay as described above.
(§2) A plaque reduction inhibition assay was carried out to measure the inhibitory activity of Z-medicaments against infections of ZIKV and DENV. […] The compound-virus mixtures were then transferred to Vero E6 cells (10^5/well) and incubated at 37° C. for 1 h. […] The cells were washed thoroughly with PBS, and overlaid with DMEM containing 1% carboxymethyl cellulose and 2% FBS, followed by in vitro culture at 37° C. for 4-5 days and then staining with 0.5% crystal violet.
(§3) After removal of the unbound compounds by centrifugation after addition of 3% PEG-6000, ZIKV was incubated with Vero E6 cells at 37° C. for 1 h. The cells were then washed with PBS, overlaid with DMEM containing 1% carboxymethyl cellulose and 2% FBS, and cultured at 37° C. for 4-5 days, followed by staining with 0.5% crystal violet.

For series [2], the system named is ZIKV human strain PAN2015 (2015/Panama). Briefly: microbe, parasite or virus in culture. It is filed as cell-based, Zika virus (ZIKV). The note with it: Vero E6 cells; Table 7, gossypol derivatives; read-out: ZIKV strains IC50, PAN2015.
Description: as §1, §2, §3

Series [3] relates to ZIKV mosquito strain MEX 2-81 (2016/Mexico). Briefly: Plaque reduction inhibition assay in Vero E6 cells, ZIKV MEX 2-81. It is filed as cell-based, Zika virus (ZIKV). The settings on record: Vero E6 cells; Table 7, gossypol derivatives; read-out: ZIKV strains IC50, MEX 2-81.
Description: as §1, §2, §3

The test system of series [4] is ZIKV human strain PRVABC59 (2015/Puerto Rico). The series can be described thus: Plaque reduction inhibition assay in Vero E6 cells, ZIKV PRVABC59. Format: cell-based, Zika virus (ZIKV). The settings on record: Vero E6 cells; Table 7, gossypol derivatives; read-out: ZIKV strains IC50, PRVABC59. How it is done: (§4) A plaque reduction inhibition assay was carried out to measure the inhibitory activity of Z-medicaments against infections of ZIKV and DENV. […] The compound-virus mixtures were then transferred to Vero E6 cells (10^5/well) and incubated at 37° C. for 1 h.

In series [5] the test system is ZIKV human strain R103451 (2015/Honduras). Briefly: Plaque reduction inhibition assay in Vero E6 cells, ZIKV R103451. The note with it: Vero E6 cells; Table 7, gossypol derivatives; read-out: ZIKV strains IC50, R103451. Format: cell-based, Zika virus (ZIKV). The protocol: as §4
Series [6] deals with ZIKV human strain PAN2016 (2016/Panama). Briefly: Plaque reduction inhibition assay in Vero E6 cells, ZIKV PAN2016. It is filed as cell-based, Zika virus (ZIKV). The note with it: Vero E6 cells; Table 7, gossypol derivatives; read-out: ZIKV strains IC50, PAN2016. The protocol:
as §4

Series [7] has as its system ZIKV human strain FLR (2015/Colombia). Briefly: Plaque reduction inhibition assay in Vero E6 cells, ZIKV FLR. It is filed as cell-based, Zika virus (ZIKV). The note with it: Vero E6 cells; Table 7, gossypol derivatives; read-out: ZIKV strains IC50, FLR. How it is done:
as §4

Series [8] has as its system ZIKV human strain IbH 30656 (1968/Nigeria). The series can be described thus: Plaque reduction inhibition assay in Vero E6 cells, ZIKV IbH 30656. Format: cell-based, Zika virus (ZIKV). The note with it: Table 7, gossypol derivatives, read-out: ZIKV strains IC50, IbH 30656. How it is done:
as §4

Series [9] relates to Vero E6 cells. Briefly: in vitro. The note with it: Vero E6 cells. How it is done: The cytotoxicity of the Z-medicaments in Vero E6 (ZIKV target cells) was evaluated using the Cell Counting Kit-8 (CCK8).
Briefly, compounds at 2-fold serial dilutions were added to cells (2.0×10^4/well) pre-seeded in 96-well plates. The cells were cultured at 37° C. for 3 days, and incubated with CCK8 solution, followed by measurement of absorbance at 450 nm (A450 value) using microplate reader.

Series [10] concerns ZIKV human strain PLCal_ZV (2013/Thailand). Briefly: Plaque reduction inhibition assay in Vero E6 cells, ZIKV PLCal_ZV. Format: cell-based, Zika virus (ZIKV). The settings on record: Vero E6 cells; Table 7, gossypol derivatives; read-out: ZIKV strains IC50, PLCal_ZV. How it is done: as §4
For series [11], the system named is ZIKV rhesus macaque strain MR 766 (1947/Uganda). The series can be described thus: Plaque reduction inhibition assay in Vero E6 cells, ZIKV MR 766. It is filed as cell-based, Zika virus (ZIKV). The note with it: Vero E6 cells; Table 7, gossypol derivatives; read-out: ZIKV strains IC50, MR766. The protocol: as §4
Series [12] has as its target T1, ZIKV NS2B-NS3 protease (Zika virus, UniProt Q32ZE1).
T1 construct: 49-97) and NS2 protein (residues 1-185) through a covalent; made in house; host or cells: E. coli
The series can be described thus: ELISA binding to ZIKV NS2B-NS3 protease. How it is done:
(§5) Binding of compounds (NPs) to ZIKV full-length E (FIG. 3A), EDIII (FIG. 3B), and NS2B-NS3 (FIG. 3C) proteins, was detected by ELISA. The percent binding was reported in the presence or absence of serially diluted NPs using the formula (1-[E/EDIII-NP]/[E/EDIII])×100 (for E/EDIII binding) or (1-[NS2B-NS3-NP]/[NS2B-NS3])×100 (for NSEB-NS3 binding). […] The concentrations of ZIKV EDIII and mAbs were 1.5 and 0.5 μg/ml, respectively. […] The concentrations of substrate (Bz-Nle-Lys-Lys-Arg-AMC) and ZIKV NS2B-NS3 protein were 4 μM and 1 μg/ml, respectively. The percent inhibition of protease activity was calculated in the presence or absence of serially diluted compounds using the formula (1-[NS2B-NS3-substrate-NP]/[NS2B-NS3-substrate])×100. The IC50 values were calculated based on the percent inhibition. The data are expressed as mean±s.e.m. (n=4).
(§6) The data are expressed as mean±s.e.m. (n=4), and DMSO was used as negative control. Surface plasmon resonance (SPR) analysis of the binding between ST087010 and ZIKV EDIII (FIG. 6D) or NS2B-NS3 (FIG. 6E) protein was performed. Binding affinity was shown as KD (equilibrium dissociation constant).
(§7) The binding between the Z-medicament and ZIKV full-length E protein, EDIII protein (E residues 298-409 fused with a C-terminal human Fc), or NS2B-NS3 protease was carried out by ELISA. Briefly, ELISA plates were pre-coated with the proteins described above at 4° C. overnight, and blocked with 2% fat-free milk at 37° C. for 2 h. Serial dilutions of the Z-medicament or DMSO (control) were then added to the plates and incubated at 37° C. for 2 h. The plates were washed with PBS containing Tween-20 (PBST), and incubated at 37° C. for 1 h with ZIKV EDIII-specific human mAb ZKA64-LALA (0.5 μg/ml) (for binding to ZIKV full-length E and EDIII proteins), or mouse sera specific to ZIKV NS2B-NS3 (for binding to NS2B-NS3 protease). The plates were washed with PBST, and incubated with horseradish peroxidase (HRP)-conjugated anti-human IgG-Fab (1:3000) or anti-mouse IgG (1:3000) antibody at 37° C. for 1 h. The 3,3′,5,5′-tetramethylbenzidine (TMB) substrate was added to the plates, and the reaction was stopped by 1 N H2SO4. Absorbance at 450 nm (A450 value) was measured by ELISA microplate reader.
(§8) Briefly, ELISA plates were coated with each protein (1 μg/ml) at 4° C. overnight, and were then incubated with blocking buffer containing 2% fat-free milk in PBST at 37° C. for 2 h. The above compounds, or DMSO control, at serial dilutions were added to the plates, and incubated at 37° C. for 2 h. After three washes using PBST, the plates were incubated at 37° C. for 2 h with ZIKV EDIII-specific human mAb ZKA64-LALA (0.5 μg/ml) (for binding to ZIKV full-length E or EDIII protein), or ZIKV NS2B-NS3-specific mouse sera (for binding to NS2B-NS3 protein). After further washes, the plates were incubated with HRP-conjugated anti-human IgG-Fab (1:3,000) or anti-mouse IgG (1:3,000) antibody at 37° C. for 1 h.
On the technique in general: An ELISA detects its analyte on a solid surface through an enzyme-linked reagent.

The target of series [13] is T2, ZIKV EDIII protein (E residues 298-409) (Zika virus, UniProt Q32ZE1, D679E/I627V/V603I/V629A).
T2 construct: human Fc (C)
Format: binding. The note with it: ELISA. How it is done: as §5, §6, §7
Briefly, ELISA plates were coated with each protein (1 μg/ml) at 4° C. overnight, and were then incubated with blocking buffer containing 2% fat-free milk in PBST at 37° C. for 2 h. The above compounds, or DMSO control, at serial dilutions were added to the plates, and incubated at 37° C. for 2 h. […] Absorbance at 450 nm (A450 values) was measured by an ELISA microplate reader. EC50 values were calculated.

Series [14] addresses ZIKV full-length E protein (Zika virus, UniProt Q32ZE1). The series can be described thus: ELISA binding to ZIKV full-length E protein. How it is done:
as §5, §6, §7
as §8, with “1 h. The plates were incubated with substrate TMB, and the reaction was stopped by addition of 1 N H2SO4. Absorbance at 450 nm (A450 values) was measured by an ELISA microplate reader. EC50 values were calculated.” for “1 h.”

The structures appear in SMILES notation.

Usually IC50 stands for the midpoint of a concentration-inhibition curve. The term CC50 denotes the concentration that lowers cell viability or growth by half. Read a high CC50 as lower toxicity to the cells. Consider `CCC(O)/N=C/c1c(O)c(O)c(C(C)C)c2cc(C)c(-c3c(C)cc4c(C(C)C)c(O)c(O)c(/C=N/C(O)CC)c4c3O)c(O)c12` (stereo not shown) [ST005138], for which the IC50 was determined as 3.13 ± 0.29 µM in series [1]; 2.18 ± 1.19 µM in series [2]; 2.89 ± 0.12 µM in [3]; 3.89 ± 0.32 µM in series [4]; 3.05 ± 0.09 µM in series [5]; 2.29 ± 0.01 µM in series [6]. Further, the IC50 worked out at 3.44 ± 0.18 µM in [7], 2.4 ± 0.27 µM in [8], 3.87 ± 0.54 µM in series [10] and 2.52 ± 0.04 µM in [11]. This compound also came in with a CC50 in [9] (Table 7, gossypol derivatives) of 22.82 ± 0.02 µM.
As for `Cc1cc2c(C(C)C)c(O)c(O)c3c2c(c1-c1c(C)cc2c(C(C)C)c(O)c(O)c4c2c1OC4N)OC3N` (stereo not shown) [ST069299], the IC50 in series [1] came out at 2.57 ± 0.2 µM; in series [2], 2.33 ± 0.1 µM; in series [3], 3.89 ± 0.24 µM; in series [4] it was 3.33 ± 0.3 µM; in [5], 3.85 ± 0.11 µM; in [6], 2.34 ± 0.06 µM. Moreover, the IC50 turned out to be 3.27 ± 0.25 µM in series [7], 2.54 ± 0.44 µM in series [8], 3.98 ± 0.54 µM in series [10] and 4.88 ± 0.05 µM in [11]. Moreover, in series [9] (Table 7, gossypol derivatives), the CC50 amounted to 25.9 ± 2.7 µM.
In the case of `CC(C)C[C@H](NC(=O)[C@H](Cc1ccccc1)NC(=O)c1cnccn1)B(O)O` [Bortezomib, bortezomib, reference compound], in series [12], the “Binding to ZIKV NS2B-NS3 protein (in words)” value is given as “bound to no ZIKV proteins tested”. Also, in series [13], the “Binding to ZIKV EDIII protein (in words)” value is on record as “bound to no ZIKV proteins tested”. Moreover, the “Binding to ZIKV full-length E protein (in words)” value in series [14] is “bound to no ZIKV proteins tested”. In addition, in [9] (3 days, CCK8, Table 1), the CC50 was determined as 17 ± 0.2 µM.
For `Cc1cc2nc[nH]c2c(N=Cc2c(O)c(O)c(C(C)C)c3cc(C)c(-c4c(C)cc5c(C(C)C)c(O)c(O)c(C=Nc6c(C)c(C)cc7nc[nH]c67)c5c4O)c(O)c23)c1C` [ST092971], the IC50 in series [1] amounted to 7.97 ± 0.17 µM; in series [2] it was 5.01 ± 0.36 µM; in series [3] it was 13.5 ± 0.58 µM; in [4], 9.1 ± 0.11 µM; in [5] it was 6.64 ± 0.27 µM; in series [6], 4.98 ± 0.01 µM. Also, the half-maximal inhibitory concentration (IC50) in series [7] was 6.89 ± 0.05 µM; in series [8], 5.16 ± 0.21 µM; in series [10] it was 6.72 ± 0.2 µM; in [11], 5.2 ± 0.37 µM. Also, the midpoint of cytotoxicity in series [9] (Table 7, gossypol derivatives), the CC50, lay at 72.1 ± 1.91 µM.
